According to patent publication US5138069A (E. I. Du Pont de Nemours and Company, priority 1988, dated 1992):
Counter-ions that a name gives are not always drawn. Like-named read-outs stand apart in the source and are kept apart here.

What was measured:
AII receptor = experiment: Angiotensin II receptor binding (displacement of 3H-AII); details: read-out: Angiotensin II Receptor Binding IC50, rat adrenal cortical microsomes, 2 nM 3H-AII, 1 hour, room temperature
In short: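 The receptor source was rat adrenal cortical microsomes in Tris buffer, incubated with 2 nM ³H-AII plus or minus test compound for 1 h at room temperature. Bound and free ligand were separated by rapid filtration on glass-fibre filters. Filter-bound ³H-AII was counted by scintillation.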

Renal Hypertensive Rats = experiment: Antihypertensive effects in renal hypertensive rats; assay type: in vivo; details: Rattus norvegicus; for minimal effective dose at 10 mg/kg / minimal effective dose at 100 mg/kg: Table 25; for minimal effective dose at 10 mg/kg / minimal effective dose at 3 mg/kg: intravenous; for minimal effective dose at 10 mg/kg: 10 mg/kg or less; for minimal effective dose at 100 mg/kg / minimal effective dose at 30 mg/kg: oral; for minimal effective dose at 100 mg/kg: 100 mg/kg or less; for minimal effective dose at 3 mg/kg / minimal effective dose at 30 mg/kg: Table 26
In short: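 Renal hypertensive rats (renin-driven AII elevation) dosed orally at 100 mg/kg and/or i.v. via jugular cannula at 10 mg/kg; a second set used 30 mg/kg oral and 3 mg/kg i.v. Arterial pressure recorded continuously via carotid cannula and compared with pretreatment levels.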

[1] = Table 25, tested as sodium salt

SMILES	IC50 (AII receptor; Table 25)	minimal effective dose at 10 mg/kg (Renal Hypertensive Rats)	minimal effective dose at 100 mg/kg (Renal Hypertensive Rats)	IC50 (AII receptor; Table 26)	minimal effective dose at 3 mg/kg (Renal Hypertensive Rats)	further results
CCCCc1nc(Cl)c(Cc2nnn[nH]2)n1Cc1ccc(C(=O)c2ccccc2C(=O)O)cc1 [Example 208, 2-Butyl-1-[4-(2-carboxybenzoyl)benzyl]-4-chloro-5-[(1H-tetrazol-5-yl)methyl]imidazole]	–	–	–	–	–	IC50 (AII receptor; [1]): 330 nM; minimal effective dose at 10 mg/kg (Renal Hypertensive Rats; tested as sodium salt): < 10 mg/kg; minimal effective dose at 100 mg/kg (Renal Hypertensive Rats; tested as sodium salt): > 100 mg/kg
CCCCc1nc(Cl)c(CNS(C)(=O)=O)n1Cc1ccc(C(=O)c2ccccc2C(=O)O)cc1 [Example 215]	–	–	–	–	–	IC50 (AII receptor; [1]): 200 nM; minimal effective dose at 10 mg/kg (Renal Hypertensive Rats; tested as sodium salt): < 10 mg/kg; minimal effective dose at 100 mg/kg (Renal Hypertensive Rats; tested as sodium salt): > 100 mg/kg
CCCCc1nc(Cl)c(/C=C/CO)n1Cc1ccc(NC(=O)c2ccccc2C(=O)O)cc1 [Example 227, 3-[1-(4-(2-Carboxybenzamido)-benzyl)-2-butyl-4-chloroimidazol-5-yl]-propen-1-ol, E isomer]	110 nM	< 10 mg/kg	–	–	–	–
CCCCc1nc(Cl)c(/C=C/C(C)O)n1Cc1ccc(-c2ccccc2C(=O)OC)cc1 (stereo not drawn) [Example 229, 4-[1-(2'-Carbomethoxybiphenyl-4-yl)methyl-2-butyl-4-chloroimidazol-5-yl]-3-buten-2-ol, E isomer]	2100 nM	< 10 mg/kg	< 100 mg/kg	–	–	–
CCCCc1nc(Cl)c(/C=C/c2ccccc2)n1Cc1ccc(NC(=O)c2ccccc2C(=O)O)cc1 [Example 230, 1-[4-(2-Carboxybenzamido)-benzyl]-2-butyl-4-chloro-5-(2-phenylethen-1-yl)imidazole, E isomer]	1600 nM	< 10 mg/kg	–	–	–	–
CCCCc1nc(Cl)c(/C=C/COC(C)=O)n1Cc1ccc(NC(=O)c2ccccc2NS(=O)(=O)C(F)(F)F)cc1 [Example 232, 3-[1-(4-((N-Trifluoromethanesulfonyl)-anthranilamido)benzyl)-2-butyl-4-chloroimidazol-5-yl]-3-propen-1-ol acetate, E isomer]	510 nM	< 10 mg/kg	–	–	–	–
CCCCc1nc(Cl)c(/C=C/CO)n1Cc1ccc(NC(=O)c2ccccc2NS(=O)(=O)C(F)(F)F)cc1 [Example 233, 3-[1-(4-((N-trifluoromethanesulfonyl)-anthranilamido)benzyl)-2-butyl-4-chloroimidazol-5-yl]-propen-1-ol, E isomer]	600 nM	< 10 mg/kg	< 100 mg/kg	–	–	–
CCCCc1nc(Cl)c(CCC(=O)OC)n1Cc1ccc(NC(=O)c2ccccc2C(=O)O)cc1 [Example 234, 3-[2-Butyl-4-chloro-1-(4-(2-carboxybenzamido)benzyl)imidazol-5-yl]-propanoic acid methyl ester]	64 nM	< 10 mg/kg	> 100 mg/kg	–	–	–
CCCCc1nc(Cl)c(CCC(=O)OC)n1Cc1ccc(NC(=O)c2ccccc2NS(=O)(=O)C(F)(F)F)cc1 [Example 235, 3-[2-Butyl-4-chloro-1-(4-((N-trifluoromethanesulfonyl)anthranilamido)benzyl)imidazol-5-yl]-propanoic acid methyl ester]	160 nM	< 10 mg/kg	> 100 mg/kg	–	–	–
CCCCc1nc(Cl)c(CC(C)C(=O)OC(C)C)n1Cc1ccc(NC(=O)c2ccccc2NS(=O)(=O)C(F)(F)F)cc1 (centres unmarked) [Example 237, 3-[1-(4-((N-trifluoromethanesulfonyl)anthranilamido)benzyl)-2-butyl-4-chlorimidazol-5-yl]-2-methylpropanoic acid, isopropyl ester]	120 nM	< 10 mg/kg	> 100 mg/kg	–	–	–
CCCCc1nc(Cl)c(C(=O)O)n1Cc1ccc(-c2ccccc2C(=O)O)cc1 [Example 240, 1-[(2'-Carboxybiphenyl-4-yl)methyl]-2-butyl-4-chloroimidazole-5-carboxylicacid]	92 nM	< 10 mg/kg	–	–	–	–
CCCCc1nc(C(F)(F)F)c(C(=O)O)n1Cc1ccc(-c2ccccc2-c2nn[nH]n2)cc1 [Example 240A]	–	–	–	150 nM	< 3 mg/kg	minimal effective dose at 30 mg/kg (Renal Hypertensive Rats): < 30 mg/kg
CCCCc1nc(Cl)c(/C=C/C(=O)OC)n1Cc1ccc(NC(=O)c2ccccc2C(=O)O)cc1 [Example 242]	270 nM	< 10 mg/kg	–	–	–	–
CCCCc1nc(Cl)c(CCC(C)=O)n1Cc1ccc(NC(=O)c2ccccc2C(=O)O)cc1 [Example 244]	88 nM	< 10 mg/kg	–	–	–	–
CCCCc1nc(Cl)c(CC(C)C(=O)OC(C)C)n1Cc1ccc(NC(=O)c2ccccc2C(=O)O)cc1 (centres unmarked) [Example 246]	120 nM	< 10 mg/kg	–	–	–	–
CCCCc1nc(Cl)c(CCCOC(C)=O)n1Cc1ccc(NC(=O)c2ccccc2NS(=O)(=O)C(F)(F)F)cc1 [Example 248]	250 nM	< 10 mg/kg	–	–	–	–
CCCCc1nc(Cl)c(CCC(=O)N2CCOCC2)n1Cc1ccc(NC(=O)c2ccccc2C(=O)O)cc1 [Example 249]	72 nM	< 10 mg/kg	> 100 mg/kg	–	–	–
CCCCc1nc(Cl)c(CCC(=O)N2CCOCC2)n1Cc1ccc(NC(=O)c2ccccc2NS(=O)(=O)C(F)(F)F)cc1 [Example 250]	120 nM	< 10 mg/kg	> 100 mg/kg	–	–	–

SMILES	IC50 (AII receptor; Table 25)	minimal effective dose at 10 mg/kg (Renal Hypertensive Rats)	minimal effective dose at 100 mg/kg (Renal Hypertensive Rats)	IC50 (AII receptor; Table 26)	minimal effective dose at 3 mg/kg (Renal Hypertensive Rats)	further results
CCCc1nc(Cl)c(C(=O)O)n1Cc1ccc(-c2ccccc2-c2nn[nH]n2)cc1 [Example 251A]	–	–	–	45 nM	< 3 mg/kg	minimal effective dose at 30 mg/kg (Renal Hypertensive Rats): < 30 mg/kg
CCCCc1nc(Cl)c(CCC(=O)O)n1Cc1ccc(-c2ccccc2C(=O)O)cc1 [Example 264]	250 nM	< 10 mg/kg	< 100 mg/kg	–	–	–
CCCc1nc(C(F)(F)F)c(C(=O)O)n1Cc1ccc(-c2ccccc2-c2nn[nH]n2)cc1 [Example 265A]	–	–	–	1100 nM	< 3 mg/kg	minimal effective dose at 30 mg/kg (Renal Hypertensive Rats): < 30 mg/kg
CCCCc1nc(C(F)(F)C(F)(F)F)c(C(=O)O)n1Cc1ccc(-c2ccccc2-c2nn[nH]n2)cc1 [Example 265B]	–	–	–	1400 nM	< 3 mg/kg	minimal effective dose at 30 mg/kg (Renal Hypertensive Rats): < 30 mg/kg
CCCc1nc(C(F)(F)F)c(C(=O)O)n1Cc1ccc(-c2ccccc2C(=O)O)cc1 [Example 265D]	–	–	–	1100 nM	< 3 mg/kg	–
CCCc1nc(C(F)(F)C(F)(F)F)c(C(=O)O)n1Cc1ccc(-c2ccccc2C(=O)O)cc1 [Example 265E]	–	–	–	1600 nM	< 3 mg/kg	–
CCCCc1nc(Cl)c(CCCC(=O)O)n1Cc1ccc(-c2ccccc2C(=O)O)cc1 [Example 265]	270 nM	< 10 mg/kg	< 100 mg/kg	–	–	–
CCC/C=C\c1nc(Cl)c(CO)n1Cc1ccc(-c2ccccc2C(=O)O)cc1 [Example 266, 1-[(2-Carboxybiphenyl-4-yl)-methyl]-4-chloro-5-hydroxymethyl-2-(cis-pent-1-en-1-yl)imidazole]	2300 nM	< 10 mg/kg	–	–	–	–
CCCCc1nc(Cl)c(CCCF)n1Cc1ccc(-c2ccccc2C(=O)O)cc1 [Example 292]	700 nM	< 10 mg/kg	< 100 mg/kg	–	–	–
CCCCc1nc(C(F)(F)F)c(C(=O)OCOC(=O)C(C)(C)C)n1Cc1ccc(-c2ccccc2-c2nn[nH]n2)cc1 [Example 314A]	–	–	–	64 nM	< 3 mg/kg	minimal effective dose at 30 mg/kg (Renal Hypertensive Rats): < 30 mg/kg
CCCCc1nc(Cl)c(C=CCO)n1Cc1ccc(-c2ccccc2C(=O)O)cc1 [Example 314]	630 nM	< 10 mg/kg	> 100 mg/kg	–	–	–
CCCCc1nc(Cl)c(C(O)c2ccccc2)n1Cc1ccc(-c2ccccc2-c2nn[nH]n2)cc1 (stereo not drawn) [Example 317A, α-[2-n-butyl-4-chloro-1-[(2'-(1H-tetrazol-5-yl)biphenyl-4-yl)methyl]imidazol-5-yl]-α-phenylmethanol]	–	–	–	410 nM	< 3 mg/kg	minimal effective dose at 30 mg/kg (Renal Hypertensive Rats): > 30 mg/kg
CCCCc1nc(Cl)c(CO)n1Cc1ccc(-c2ccccc2C(=O)NS(=O)(=O)c2ccccc2C)cc1 [Example 319]	–	–	–	91 nM	< 3 mg/kg	minimal effective dose at 30 mg/kg (Renal Hypertensive Rats): > 30 mg/kg
CCCc1nc(C)c(C=O)n1Cc1ccc(-c2ccccc2C(=O)O)cc1 [Example 320, 1-[(2'-Carboxybiphenyl-4-yl)methyl]-4-methyl-2-propylimidazole-5-carboxaldehyde]	–	–	–	880 nM	< 3 mg/kg	minimal effective dose at 30 mg/kg (Renal Hypertensive Rats): < 30 mg/kg
CCCc1nc(C)c(CO)n1Cc1ccc(-c2ccccc2C(=O)O)cc1 [Example 321, 1-[(2'-Carboxybiphenyl-4-yl)methyl]-5-hydroxymethyl-4-methyl-2-propylimidazole.hydrochloride]	–	–	–	1800 nM	< 3 mg/kg	minimal effective dose at 30 mg/kg (Renal Hypertensive Rats): > 30 mg/kg
CCCCc1nc(Cl)c(CO)n1-c1ccc(NC(=O)c2ccccc2NS(=O)(=O)C(F)(F)F)cc1 [Example 325, 2-n-Butyl-4-chloro-5-hydroxymethyl-1-[4-((N-trifluoromethanesulfonyl)-anthranilamido)phenyl]imidazole]	730 nM	< 10 mg/kg	–	–	–	–
CCCCc1ncc(CO)n1-c1ccc(NC(=O)c2ccccc2NS(=O)(=O)C(F)(F)F)cc1 [Example 326, 2-n-butyl-5-hydroxymethyl-1-[4-((N-trifluoromethanesulfonyl)anthranilamido)phenyl]imidazole]	790 nM	< 10 mg/kg	–	–	–	–
